From patent publication US20260166082A1, “METHODS OF TREATMENT WITH T CELL THERAPY AND IMMUNOMODULATORY AGENT MAINTENANCE THERAPY” (Celgene Corporation, priority 2022, published 2026)

Experiments:
[1] = system: patients with multiple myeloma following ASCT; details: maintenance with lenalidomide following ASCT; 22.1 months follow up; cited from earlier work
minimal residual disease = experiment: Example 1: MRD negativity by next-generation sequencing and EuroFlow; type: in vivo, human; details: subjects on lenalidomide maintenance after anti-BCMA CAR-T cells, subsequent analysis
Description: Exploratory endpoints, which included assessment of biomarkers (serum level of soluble BCMA (sBCMA) and inflammatory cytokines) by Luminex assay and minimal residual disease negativity (MRD−) by using aggregation of next-generation sequencing and 8-color flow cytometry (EuroFlow; sensitivity <10^−5 nucleated cells) data with interpolation to reduce missing/indeterminate data points. sBCMA levels were evaluated at leukapheresis; baseline; days 1, 4, and 8; and until disease progression. Plasma levels of immune-related inflammatory cytokines (interferon-γ (IFNγ), interleukin-6 (IL-6), interleukin-8 (IL-8) and interleukin-10 (IL-10)) were evaluated at leukapheresis; baseline; days 1-8, 10, 12, 15 18 and 22; and months 2 and 4. Efficacy and safety were analyzed in all subjects who received anti-BCMA CAR-T cells. PK, sBCMA, and MRD-were analyzed in evaluable subjects.

## Nc1cccc2c1CN(C1CCC(=O)NC1=O)C2=O (centres unmarked) [lenalidomide, 3-(4-amino-1-oxo-1,3-dihydro-2H-isoindol-2-yl) piperidine-2,6-dione]
[1]
  complete response rate: 60.9%
  patients achieving minimal residual disease negativity: 20.4
Minimal residual disease; 2/3 evaluable
  MRD-negativity maintained at 36 months: 66.7%
Minimal residual disease; 4/6 evaluable
  MRD-negativity maintained at 12 months: 66.7%
  MRD-negativity maintained at 24 months: 66.7%
